Tests used:
androgen receptor [1] = molecular target: T1, androgen receptor (Rattus norvegicus, UniProt P15207); test: Androgen receptor binding using rat ventral prostate cytosol; design: Male Sprague Dawley or Wistar rats (Charles River, 200-300 g) were used for each preparation; from tissue; host or cells: ventral prostate cytosol of castrated male Sprague Dawley or Wistar rats
T1 sequence (P15207 1-902): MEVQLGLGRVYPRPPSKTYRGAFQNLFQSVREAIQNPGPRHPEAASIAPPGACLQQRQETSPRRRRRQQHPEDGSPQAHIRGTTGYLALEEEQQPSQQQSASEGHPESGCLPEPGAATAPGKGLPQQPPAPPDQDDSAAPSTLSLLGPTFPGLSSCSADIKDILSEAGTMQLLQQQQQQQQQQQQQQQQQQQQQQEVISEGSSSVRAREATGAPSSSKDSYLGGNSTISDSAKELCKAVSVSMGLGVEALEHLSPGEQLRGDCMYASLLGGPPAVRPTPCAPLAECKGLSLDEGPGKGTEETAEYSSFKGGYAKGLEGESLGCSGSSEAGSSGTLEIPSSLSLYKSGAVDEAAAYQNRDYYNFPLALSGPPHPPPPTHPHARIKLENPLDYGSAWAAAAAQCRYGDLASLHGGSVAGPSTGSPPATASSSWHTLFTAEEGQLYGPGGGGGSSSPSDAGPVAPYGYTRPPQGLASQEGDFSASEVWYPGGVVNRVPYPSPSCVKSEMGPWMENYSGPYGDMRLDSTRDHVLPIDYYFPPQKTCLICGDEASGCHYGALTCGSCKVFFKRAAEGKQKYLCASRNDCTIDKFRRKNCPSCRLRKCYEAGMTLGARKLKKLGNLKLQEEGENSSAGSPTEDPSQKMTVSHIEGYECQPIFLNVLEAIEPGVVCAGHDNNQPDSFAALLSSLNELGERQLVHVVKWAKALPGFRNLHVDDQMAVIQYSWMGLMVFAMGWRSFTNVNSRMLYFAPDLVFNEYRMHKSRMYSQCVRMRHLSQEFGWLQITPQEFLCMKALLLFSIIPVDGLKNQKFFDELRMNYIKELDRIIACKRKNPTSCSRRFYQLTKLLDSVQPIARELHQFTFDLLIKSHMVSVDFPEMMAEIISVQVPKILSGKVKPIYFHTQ

androgen receptor [2] = molecular target: T1, androgen receptor; test: COS-7 whole-cell androgen receptor binding assay, adenovirus transduction; design: expressed in transfected cells; conditions: for % Inhibition @ 3 μM: 3 μM (3000 nM), COS-7 cells, [3H]R1881, AdEasy+rAR; for inhibition at 3 µM: read-out: % Inhibition @ 3 μM
Experimental: COS-7 cells were plated in 96-well plates at 20,000 cells per well, in a solution of DMEM/F12 (GIBCO) containing 10% (v/v) charcoal-treated fetal bovine serum (Hyclone) and lacking phenol red. The cells were then incubated overnight at 37° C. in 5% (v/v) humidified CO2.
Test compound solutions were prepared by diluting the test compound in 100% (v/v) DMSO, if necessary. Each dilution yielded a solution which was 625× the final desired test concentration.
Next, 1 mL of DMEM/F12 lacking phenol red was pipetted into each of the wells of a 2-mL 96-well assay block. Then 4 μL of the 625× test compound dilutions were pipetted into each well of the assay block. The wells were carefully mixed by pipette.
In a 15 mL or 50 mL sterile centrifuge tube, a 2.5 nM dilution of tritiated methyl-trienolone in DMEM/F12 lacking phenol red ([^3H]R1881; Perkin-Elmer) was prepared.
In a 15 mL or 50 mL sterile centrifuge tube, a dilution in DMEM/F12 of the adenovirus AdEasy+rAR at a moi of 1:50 per well was prepared.
The medium was removed from the 96-well plates by inversion and the plates dried very briefly, inverted, on a sterile towel. As soon as possible after medium removal, 40 μL of the diluted test compound was added to each well, in duplicate. To each well was then added 40 μL of the 2.5 nM [^3H]R1881 and 20 μL of the diluted adenovirus. The plates were then incubated for 48 hours at 37° C. in 5% (v/v) humidified CO2.
The medium was removed from the above incubated plates by inversion and dried. Each well was then washed with 0.35 mL of 1×PBS. The PBS was then removed from the plates by inversion and the plates dried.
To each well was then added 50 μL of 0.5% (v/v) Triton X-100 (Sigma) in 1×PBS and the plates placed on a rotary shaker for 5 min. The contents of each well were then transferred to an OptiPlate-96 (Packard) scintillation plate. To each well was then added 0.2 mL of Microscint-20 (Packard) and the wells counted on a TopCount (Packard).
Percent inhibition was determined by testing dilutions of the test compound (usually duplicates of 10 μM) in the binding assay. Counts per well were measured and percents of inhibition determined. Androgen receptor binding IC50s were determined by testing serial dilutions of the test compound (usually duplicate ten half-log dilutions starting at 10 μM) in the binding assay. Counts per well were measured and IC50s determined by linear regression.
Representative compounds of the present invention were tested for binding to the androgen receptor according to the procedure described above with results as listed in Table C. Unless otherwise noted, COS binding % inhibition was determined using a concentration of 3000 nM. For compounds tested more than once, each result is listed separately in Table 3 below.

[3] = test system: castrated male Sprague Dawley rats; test: Ventral prostate and seminal vesicle weight in vivo assay; design: species or system rat; key: A test compound was said to be “active” if the non weight adjusted prostate weight was ≦60 mg or ≧84 mg; they are listed herein as “inactive” as they did not meet the specified criteria defined above; conditions: immature castrated rats, once daily for five days, usually orally 40 mg/kg, with testosterone propionate 2 mg/kg s.c.
Experimental: Immature (approximately 50 g) castrated male Sprague Dawley rats (Charles River) were treated once daily for five days with test compound (usually given orally at 40 mg/kg in a volume of 0.3 mL, in 30% cyclodextrin or 0.5% methylcellulose vehicle) and with testosterone propionate (given subcutaneously by injection at the nape of the neck at 2 mg/kg, in a volume of 0.1 mL in sesame oil). On the sixth day, the rats were euthanized by asphyxiation in carbon dioxide. Ventral prosatates and seminal vesicles were removed and their wet weights determined. Test compound activity was determined as the percent inhibition of testosterone-enhanced tissue weights, with a vehicle-treated control group set to zero percent and a testosterone alone-treated control group set to 100%.
A test compound was said to be “active” if the non weight adjusted prostate weight was ≦60 mg or ≧84 mg.

SMILES: COC(=O)C1(C)CN(c2ccccc2)C(=O)N1 (racemic) [Compound 4b]
- % Inhibition @ 3 μM (androgen receptor [1]): −71%
- % Inhibition @ 3 μM (androgen receptor [2]): 16%
- active / inactive by non weight adjusted prostate weight [3]: active

SMILES: COC(=O)C1(C)CN(c2ccc(OC)cc2)C(=O)N1 (racemic) [Compound 4c]
- % Inhibition @ 3 μM (androgen receptor [1]): −36%
- % Inhibition @ 3 μM (androgen receptor [2]): −8%
- active / inactive by non weight adjusted prostate weight [3]: inactive

SMILES: COC(=O)C1(C)CN(c2ccc(Cl)c(C(F)(F)F)c2)C(=O)N1 (racemic) [Compound 4d]
- % Inhibition @ 3 μM (androgen receptor [1]): 24%
- % Inhibition @ 3 μM (androgen receptor [2]): −30%
- active / inactive by non weight adjusted prostate weight [3]: inactive

SMILES: COC(=O)C1(C)CN(c2ccc(C#N)c(C(F)(F)F)c2)C(=O)N1 (racemic) [Compound 4e]
- % Inhibition @ 3 μM (androgen receptor [1]): −68%
- % Inhibition @ 3 μM (androgen receptor [2]): 27%
- active / inactive by non weight adjusted prostate weight [3]: active

SMILES: CC1(C(=O)O)CN(c2ccccc2)C(=O)N1 (racemic) [Compound 5b]
- % Inhibition @ 3 μM (androgen receptor [1]): −110%
- % Inhibition @ 3 μM (androgen receptor [2]): 15%
- active / inactive by non weight adjusted prostate weight [3]: inactive

SMILES: COc1ccc(N2CC(C)(C(=O)O)NC2=O)cc1 (racemic) [Compound 5c]
- % Inhibition @ 3 μM (androgen receptor [1]): −21%
- % Inhibition @ 3 μM (androgen receptor [2]): −11%
- active / inactive by non weight adjusted prostate weight [3]: inactive

SMILES: CC1(C(=O)O)CN(c2ccc(Cl)c(C(F)(F)F)c2)C(=O)N1 (racemic) [Compound 5d]
- % Inhibition @ 3 μM (androgen receptor [1]): 28%
- % Inhibition @ 3 μM (androgen receptor [2]): −26%
- active / inactive by non weight adjusted prostate weight [3]: inactive

SMILES: CC1(C(=O)Nc2ccccc2)CN(c2ccccc2)C(=O)N1 (racemic) [Compound 6b]
- % Inhibition @ 3 μM (androgen receptor [1]): −68%
- % Inhibition @ 3 μM (androgen receptor [2]): 22%
- active / inactive by non weight adjusted prostate weight [3]: inactive

SMILES: COc1ccc(N2CC(C)(C(=O)Nc3ccc(C#N)c(C(F)(F)F)c3)NC2=O)cc1 (racemic) [Compound 6c]
- % Inhibition @ 3 μM (androgen receptor [1]): 29%
- % Inhibition @ 3 μM (androgen receptor [2]): 24%
- active / inactive by non weight adjusted prostate weight [3]: inactive

SMILES: CC1(C(=O)Nc2ccc(C#N)c(C(F)(F)F)c2)CN(c2ccccc2)C(=O)N1 (racemic) [Compound 6d]
- % Inhibition @ 3 μM (androgen receptor [1]): 1%
- % Inhibition @ 3 μM (androgen receptor [2]): 40%
- active / inactive by non weight adjusted prostate weight [3]: inactive

SMILES: CC1(C(=O)Nc2ccc([N+](=O)[O-])c(C(F)(F)F)c2)CN(c2ccccc2)C(=O)N1 (racemic) [Compound 6e]
- % Inhibition @ 3 μM (androgen receptor [1]): −71%
- % Inhibition @ 3 μM (androgen receptor [2]): 37%
- active / inactive by non weight adjusted prostate weight [3]: inactive

SMILES: CC1(C(=O)Nc2cccc(C(F)(F)F)c2)CN(c2ccc(F)cc2)C(=O)N1 (racemic) [Compound 6g]
- % Inhibition @ 3 μM (androgen receptor [1]): 23%
- % Inhibition @ 3 μM (androgen receptor [2]): −40%
- active / inactive by non weight adjusted prostate weight [3]: inactive

SMILES: CC1(C(=O)Nc2cc(C(F)(F)F)cc(C(F)(F)F)c2)CN(c2ccc(F)cc2)C(=O)N1 (racemic) [Compound 6h]
- % Inhibition @ 3 μM (androgen receptor [1]): −17%
- % Inhibition @ 3 μM (androgen receptor [2]): 76%
- active / inactive by non weight adjusted prostate weight [3]: active

SMILES: CC1(C(=O)Nc2ccc(C(F)(F)F)nc2)CN(c2ccccc2)C(=O)N1 (racemic) [Compound 6j]
- % Inhibition @ 3 μM (androgen receptor [1]): −75%
- % Inhibition @ 3 μM (androgen receptor [2]): 18%
- active / inactive by non weight adjusted prostate weight [3]: inactive

SMILES: CC1(C(=O)O)CN(c2ccc(F)cc2)C(=O)N1 (stereo not drawn) [Compound 5a, 1-(4-Fluoro-phenyl)-4-methyl-2-oxo-imidazolidine-4-carboxylic acid]
- inhibition at 3 µM (androgen receptor [1]): 33%
- inhibition at 3 µM (androgen receptor [2]): -14%
- active / inactive by non weight adjusted prostate weight [3]: inactive

SMILES: CC1(C(=O)Nc2ccc(C#N)c(C(F)(F)F)c2)CN(c2ccc(F)cc2)C(=O)N1 (stereo not drawn) [Compound 6a, 1-(4-Fluoro-phenyl)-4-methyl-2-oxo-imidazolidine-4-carboxylic acid (4-cyano-3-trifluoromethyl-phenyl)-amide]
- inhibition at 3 µM (androgen receptor [1]): 63%
- inhibition at 3 µM (androgen receptor [2]): 43%
- active / inactive by non weight adjusted prostate weight [3]: active

— patent publication US7531565B2, “Imidazolidin-2-one derivatives as selective androgen receptor modulators (SARMS)” (Janssen Pharmaceutica, N.V., priority 2004, dated 2009)
